From PMC12837263, “β,β-Dimethylacrylalkannin Restores Colistin Efficacy Against mcr- and TCS-Mediated Resistant Gram-Negative Bacteria via Membrane Disturbance” (Antibiotics, 2025)

Key:
[1] = system: K. pneumoniae (including mcr-1, mcr-8, mcr-9, pmrA/B, phoP, and mgrB); assay: Checkerboard assay, colistin-resistant K. pneumoniae (summary); type: cell-based; conditions: with β,β-Dim
Method: The FICI of β,β-Dim–colistin combination was determined by a checkerboard assay. Briefly, two-fold serial dilutions of β,β-Dim and colistin were prepared in a 96-well plate. After incubation at 37 °C for 18 h with bacterial suspension (10^6 CFU/mL), OD600 values were measured. FICI = (MICβ,β-Dim in combination/MICβ,β-Dim) + (MICcolistin in combination/MICcolistin). The synergistic effect of β,β-Dim with other antibiotics was measured in the same way. Synergy was considered to be an FICI ≤ 0.5.

K. pneumoniae 667 = assay: Murine systemic (abdominal) infection model; type: in vivo; conditions: mice
Method: Mice were randomly assigned to five groups (n = 10) and infected intraperitoneally with K. pneumoniae 667 (8 × 10^6 CFUs). One hour post-infection, treatments were administered intraperitoneally: PBS, β,β-Dim (2 mg/kg), colistin (0.2 mg/kg), or β,β-Dim combined with colistin (2 + 0.2 mg/kg). Survival was continuously monitored. Upon death, the heart, liver, spleen, lungs, and kidney were immediately collected. At five days post-infection, surviving mice were euthanized, and the same organs were harvested. Half of each organ was weighed, homogenized, diluted, and plated on LA plates for bacterial colony enumeration. The remaining tissue samples were used for histopathological analysis.

S. aureus ATCC 29213 = assay: Effect of membrane components on antibacterial activity; type: cell-based
Method: The effects of membrane components on the antibacterial activity of β,β-Dim were evaluated using the checkerboard method by exogenous addition of phosphatidylethanolamine (PE), phosphatidylglycerol (PG), and cardiolipin (CL). The same procedure was followed with pre-addition of the respective components to CAMHB to explore their impact on the β,β-Dim–colistin combination in E. coli.

[2] = Isothermal titration calorimetry (ITC); type: binding; conditions: 25 °C, β,β-Dim vs CL
Method: An isothermal titration calorimetry (ITC) assay was used to assess the affinity between β,β-Dim and PE, PG, and CL using NANO ITC (TA, New Castle, DE, USA). β,β-Dim (0.01 mM) was loaded into the sample cell and titrated with 20 injections of 2 μL membrane components (0.2 mM) at 120 s intervals. The assay was performed at 25 °C with a stirring rate of 350 rpm. Data were analyzed using the independent binding model to calculate the dissociation constant (KD), stoichiometric ratio (n), enthalpy change (ΔH), and entropy change (ΔS).

[3] = system: E. coli BW25113, E. coli BW25113-mcr-1, and E. coli BW25113-pmrBR93P; assay: Intracellular β,β-Dim content (HPLC-MS/MS); type: cell-based; conditions: β,β-Dim 16 μg/mL with colistin 0–1 × MIC; three E. coli strains
Method: Overnight cultures E. coli BW25113, E. coli BW25113-mcr-1, and E. coli 1 BW25113-pmrBR93P were diluted to 10^8 CFU/mL and then co-incubated with colistin (0.5 × MIC) in the presence of β,β-Dim (0–4 μg/mL) for 30 min at 37 °C. The cultures were centrifuged and resuspended in 30% methanol. Bacteria were disrupted by sonication and centrifugation, supernatants were diluted in 20% acetonitrile, and intracellular colistin was quantified via HPLC-MS/MS (TQ-XS, Waters, Milford, MA, USA). Analyses were performed on a CORTECS Shield RP C18 column (Waters, Milford, MA, USA) at 40 °C, with a flow rate of 0.4 mL/min and an injection volume of 5 μL. The mobile phases consisted of solvent A (0.5% formic acid and acetonitrile in water) and solvent B (0.5% formic acid in water). Colistin was detected in positive ESI mode with ion transitions […] and m/z 386.0 > 101.0. […] Mobile phases included solvent A (acetonitrile) and solvent B (water). β,β-Dim was detected in the negative electrospray ionization (ESI) mode with ion transitions m/z 369.1 > 269.0 and m/z 369.1 > 241.0.

Compound	enhancement of colistin activity (MIC reduction) [1]	survival rate (K. pneumoniae 667; day 5 post-infection, single i.p. β,β-Dim 2 mg/kg, colistin 0.2 mg/kg) [%]	histopathological analysis (tissue damage) (K. pneumoniae 667; heart, liver, spleen, lung, kidney)	antibacterial activity with exogenous PE, PG, and CL (S. aureus ATCC 29213)	increase of MIC by CL (S. aureus ATCC 29213; CL 40 μM) [fold]	Kd [2] [µM]	intracellular β,β-Dim accumulation [3]
colistin	8–1024 fold	20	partially alleviated these lesions	–	–	–	–
CC(C)=CC[C@H](OC(=O)C=C(C)C)C1=CC(=O)c2c(O)ccc(O)c2C1=O [β,β-Dim, β,β-dimethylacrylalkannin]	–	–	–	attenuated the antibacterial activity	4	12.4	approximately 60 ng per 10^8 CFUs
